Assay results taken from ChEMBL document CHEMBL3112450, “Synthesis and in vitro antitumor evaluation of primary amine substituted quinazoline linked benzimidazole” (Bioorg Med Chem Lett, 2014).

Columns and labels:
Type in all cases: functional
SNB-19 = experiment: Cytotoxicity against human SNB19 cells assessed as cell growth at 10^-5 M after 48 hrs by SRB assay; conditions: SNB-19, 48 h, read-out: Activity
A498 = experiment: Cytotoxicity against human A498 cells assessed as cell growth at 10^-5 M after 48 hrs by SRB assay; conditions: A498, 48 h, read-out: Activity
SW-620 = experiment: Cytotoxicity against human SW620 cells assessed as cell growth at 10^-5 M after 48 hrs by SRB assay; conditions: SW-620, 48 h, read-out: Activity
MCF7 = experiment: Cytotoxicity against human MCF7 cells assessed as cell growth at 10^-5 M after 48 hrs by SRB assay; conditions: MCF7, 48 h, read-out: Activity
[1] = Cytotoxicity against human NCI-ADR-RES cells assessed as cell growth at 10^-5 M after 48 hrs by SRB assay; conditions: read-out: Activity
COLO 205 = experiment: Cytotoxicity against human COLO205 cells assessed as cell growth at 10^-5 M after 48 hrs by SRB assay; conditions: COLO 205, 48 h, read-out: Activity
[2] = Cytotoxicity against human Hs578T cells assessed as cell growth at 10^-5 M after 48 hrs by SRB assay; conditions: Hs-578T, read-out: Activity
LOX IMVI = experiment: Cytotoxicity against human LOXIMVI cells assessed as cell growth at 10^-5 M after 48 hrs by SRB assay; conditions: read-out: Activity
[3] = Cytotoxicity against human UACC257 cells assessed as cell growth at 10^-5 M after 48 hrs by SRB assay; conditions: UACC-257, 48 h, read-out: Activity
[4] = Cytotoxicity against human OVCAR4 cells assessed as cell growth at 10^-5 M after 48 hrs by SRB assay; conditions: OVCAR-4, 48 h, read-out: Activity
MDA-MB-468 = experiment: Cytotoxicity against human MDA-MB-468 cells assessed as cell growth at 10^-5 M after 48 hrs by SRB assay; conditions: MDA-MB-468, 48 h, read-out: Activity
DU-145 = experiment: Cytotoxicity against human DU145 cells assessed as cell growth at 10^-5 M after 48 hrs by SRB assay; conditions: DU-145, 48 h, read-out: Activity
SF-295 = experiment: Cytotoxicity against human SF295 cells assessed as cell growth at 10^-5 M after 48 hrs by SRB assay; conditions: SF-295, 48 h, read-out: Activity
RXF 393 = experiment: Cytotoxicity against human RXF393 cells assessed as cell growth at 10^-5 M after 48 hrs by SRB assay; conditions: RXF 393, 48 h, read-out: Activity
BT-549 = experiment: Cytotoxicity against human BT549 cells assessed as cell growth at 10^-5 M after 48 hrs by SRB assay; conditions: BT-549, 48 h, read-out: Activity
HT-29 = experiment: Cytotoxicity against human HT-29 cells assessed as cell growth at 10^-5 M after 48 hrs by SRB assay; conditions: HT-29, 48 h, read-out: Activity
ACHN = experiment: Cytotoxicity against human ACHN cells assessed as cell growth at 10^-5 M after 48 hrs by SRB assay; conditions: read-out: Activity
SF-268 = experiment: Cytotoxicity against human SF268 cells assessed as cell growth at 10^-5 M after 48 hrs by SRB assay; conditions: SF-268, 48 h, read-out: Activity
HCC 2998 = experiment: Cytotoxicity against human HCC2998 cells assessed as cell growth at 10^-5 M after 48 hrs by SRB assay; conditions: HCC 2998, 48 h, read-out: Activity
UACC-62 = experiment: Cytotoxicity against human UACC62 cells assessed as cell growth at 10^-5 M after 48 hrs by SRB assay; conditions: UACC-62, 48 h, read-out: Activity
SN12C = experiment: Cytotoxicity against human SN12C cells assessed as cell growth at 10^-5 M after 48 hrs by SRB assay; conditions: read-out: Activity
RPMI-8226 = experiment: Cytotoxicity against human RPMI8226 cells assessed as cell growth at 10^-5 M after 48 hrs by SRB assay; conditions: RPMI-8226, 48 h, read-out: Activity
MDA-MB-231 = experiment: Cytotoxicity against human MDA-MB-231 cells assessed as cell growth at 10^-5 M after 48 hrs by SRB assay; conditions: MDA-MB-231, 48 h, read-out: Activity
TK-10 = experiment: Cytotoxicity against human TK10 cells assessed as cell growth at 10^-5 M after 48 hrs by SRB assay; conditions: TK-10, 48 h, read-out: Activity
NCI-H226 = experiment: Cytotoxicity against human NCI-H226 cells assessed as cell growth at 10^-5 M after 48 hrs by SRB assay; conditions: NCI-H226, 48 h, read-out: Activity
HOP-62 = experiment: Cytotoxicity against human HOP62 cells assessed as cell growth at 10^-5 M after 48 hrs by SRB assay; conditions: HOP-62, 48 h, read-out: Activity
NCI-H522 = experiment: Cytotoxicity against human NCI-H522 cells assessed as cell growth at 10^-5 M after 48 hrs by SRB assay; conditions: NCI-H522, 48 h, read-out: Activity
786-0 = experiment: Cytotoxicity against human 786-0 cells assessed as cell growth at 10^-5 M after 48 hrs by SRB assay; conditions: 786-0, 48 h, read-out: Activity
SK-MEL-2 = experiment: Cytotoxicity against human SK-MEL-2 cells assessed as cell growth at 10^-5 M after 48 hrs by SRB assay; conditions: SK-MEL-2, 48 h, read-out: Activity
Malme-3M = experiment: Cytotoxicity against human MALME-3M cells assessed as cell growth at 10^-5 M after 48 hrs by SRB assay; conditions: read-out: Activity
NCI-H322M = experiment: Cytotoxicity against human NCI-H322M cells assessed as cell growth at 10^-5 M after 48 hrs by SRB assay; conditions: read-out: Activity
NCI-H23 = experiment: Cytotoxicity against human NCI-H23 cells assessed as cell growth at 10^-5 M after 48 hrs by SRB assay; conditions: NCI-H23, 48 h, read-out: Activity
HCT-116 = experiment: Cytotoxicity against human HCT116 cells assessed as cell growth at 10^-5 M after 48 hrs by SRB assay; conditions: HCT-116, 48 h, read-out: Activity
HOP-92 = experiment: Cytotoxicity against human HOP92 cells assessed as cell growth at 10^-5 M after 48 hrs by SRB assay; conditions: HOP-92, 48 h, read-out: Activity
MDA-MB-435 = experiment: Cytotoxicity against human MDA-MB-435 cells assessed as cell growth at 10^-5 M after 48 hrs by SRB assay; conditions: MDA-MB-435, 48 h, read-out: Activity
KM12 = experiment: Cytotoxicity against human KM12 cells assessed as cell growth at 10^-5 M after 48 hrs by SRB assay; conditions: KM12, 48 h, read-out: Activity
OVCAR-3 = experiment: Cytotoxicity against human OVCAR3 cells assessed as cell growth at 10^-5 M after 48 hrs by SRB assay; conditions: OVCAR-3, 48 h, read-out: Activity

SMILES	growth at 10 µM (SNB-19)	growth at 10 µM (A498)	growth at 10 µM (SW-620)	growth at 10 µM (MCF7)	growth at 10 µM [1]	growth at 10 µM (COLO 205)	growth at 10 µM [2]	growth at 10 µM (LOX IMVI)	growth at 10 µM [3]	growth at 10 µM [4]	growth at 10 µM (MDA-MB-468)	growth at 10 µM (DU-145)	growth at 10 µM (RXF 393)	growth at 10 µM (BT-549)	growth at 10 µM (HT-29)	growth at 10 µM (ACHN)	growth at 10 µM (SF-268)	growth at 10 µM (HCC 2998)	growth at 10 µM (UACC-62)	growth at 10 µM (SN12C)	other results
C=CCn1c(C)nc2ccc(Nc3nc(Nc4ncccn4)nc4ccccc34)cc21	97.6%	76.8%	100%	82.4%	103%	102%	87.7%	85.3%	101%	85.6%	78.3%	112%	114%	82.8%	104%	103%	94.8%	106%	92.6%	97.6%	growth at 10 µM (SF-295): 86.9%; growth at 10 µM (RPMI-8226): 70.7%; growth at 10 µM (MDA-MB-231): 84.4%; growth at 10 µM (TK-10): 118%; growth at 10 µM (NCI-H226): 92.2%; growth at 10 µM (HOP-62): 84.8%; growth at 10 µM (NCI-H522): 98.1%; growth at 10 µM (786-0): 106%; growth at 10 µM (SK-MEL-2): 100%; growth at 10 µM (Malme-3M): 99%; growth at 10 µM (NCI-H322M): 100%; growth at 10 µM (NCI-H23): 82.8%; growth at 10 µM (HCT-116): 94.2%; growth at 10 µM (HOP-92): 70.5%; growth at 10 µM (MDA-MB-435): 107%; growth at 10 µM (KM12): 106%; growth at 10 µM (OVCAR-3): 99.3%
C=CCn1c(C)nc2cc(Nc3nc(Nc4ccc5nc(C)n(CC=C)c5c4)nc4ccccc34)ccc21	100%	125%	106%	92.4%	101%	108%	100%	93.3%	102%	99.5%	118%	115%	124%	106%	103%	104%	113%	104%	95.8%	96.5%	growth at 10 µM (RPMI-8226): 98.8%; growth at 10 µM (MDA-MB-231): 90%; growth at 10 µM (TK-10): 130%; growth at 10 µM (NCI-H226): 99.8%; growth at 10 µM (HOP-62): 101%; growth at 10 µM (NCI-H522): 99.1%; growth at 10 µM (786-0): 113%; growth at 10 µM (SK-MEL-2): 121%; growth at 10 µM (Malme-3M): 94.5%; growth at 10 µM (NCI-H322M): 109%; growth at 10 µM (NCI-H23): 94.2%; growth at 10 µM (HCT-116): 98.9%; growth at 10 µM (HOP-92): 79.8%; growth at 10 µM (MDA-MB-435): 108%; growth at 10 µM (KM12): 109%; growth at 10 µM (OVCAR-3): 108%
C=CCn1c(C)nc2cc(Nc3nc(Nc4ccc5nc(C)n(CC=C)c5c4)c4ccccc4n3)ccc21	-75%	-100%	-76.2%	-89.3%	-46%	-100%	-48.1%	-94%	-79.8%	-100%	-85%	-100%	-97.4%	-96%	-71%	-100%	-99%	-98%	-94%	-76%	growth at 10 µM (SF-295): -100%; growth at 10 µM (RPMI-8226): -41%; growth at 10 µM (MDA-MB-231): -89%; growth at 10 µM (TK-10): -100%; growth at 10 µM (NCI-H226): -47.1%; growth at 10 µM (HOP-62): -99.5%; growth at 10 µM (NCI-H522): -94.8%; growth at 10 µM (786-0): -80%; growth at 10 µM (SK-MEL-2): -84.1%; growth at 10 µM (Malme-3M): -76%; growth at 10 µM (NCI-H322M): -100%; growth at 10 µM (NCI-H23): -69.2%; growth at 10 µM (HCT-116): -96.5%; growth at 10 µM (HOP-92): -97%; growth at 10 µM (MDA-MB-435): -92%; growth at 10 µM (KM12): -100%; growth at 10 µM (OVCAR-3): -100%
